Experimental data as given in patent US7452906B2, “Pyridine derivatives as Raf kinase inhibitors” (SmithKline Beecham P.L.C., priority 2001, dated 2008).

Columns and labels:
[1] = test system: Human diploid foreskin fibroblasts (HFF); assay: XTT 72 hr Growth Inhibition (Assay 3), HFF; assay type: cell-based; conditions: Fibroblast, normal, B-Raf wt, Ras wt
Procedure: (§1) XTT 72 hr Growth Inhibition Protocol for Mammalian Cultured Cells (Assay 3)
(§2) Human diploid foreskin fibroblasts (HFF) or human colon carcinoma (Colo 201) cells were grown in Dulbecco's modified Eagle's medium (DMEM) (Invitrogen/Life Technologies) containing 10% fetal bovine serum (FBS) and the antibiotics penicillin (100 Units/ml) and streotomycin (100 micrograms/ml) (Invitrogen/Life Technologies). Growth was at 37° C. in humidified 5% CO2 incubators in 75 cm^2 plastic flasks. Cells were harvested using 0.25% trypsin/1 mM ethylenediaminetetraacetic acid (EDTA), resuspended in growth medium, and counted using a hemocytometer. Flat-bottomed 96-well plates were seeded with 2×10^3 cells/well in a volume of 200 ul from trypsinized exponentially growing cultures. To “blank” wells, growth medium was added with no additions. Cells were incubated overnight to permit attachment.
(§3) Next day, medium from wells that contained cells was replaced with 180 microliters of fresh medium. Appropriate dilutions of test compounds were added to the wells from stock soloutions of compound dissolved in dimethyl sulfoxide DMSO); final DMSO concentration in all wells was 0.2%. Cells plus compound were incubated for an additional 72 hr at 37° C. under normal growth conditions. Cells were then assayed for viability using standard XTT/PMS*. Fifty microliters of XTT/PMS solution was added to each well and plates were incubated for 90 minutes at 37° C. Absorbance at 450 nm was then determined using a 96-well UV plate reader (Molecular Devices). Under these conditions, absorbance of untreated control cells at 450 nm was at least 1.0 optical density unit/ml. […] It was equal to 100×(A450 test well/A450 untreated control well), the A450s being averages of triplicate determinations. […]

[2] = test system: human colon carcinoma (Colo 201) cells; assay: XTT 72 hr Growth Inhibition (Assay 3), Colo201; assay type: cell-based; conditions: colorectal cancer, B-Raf and Ras status ND
Procedure: as §1, §2, §3

[3] = test system: colon carcinoma (Colo 205); assay: Methylene Blue Growth Inhibition Assay (Assay 2), Colo205; assay type: cell-based; conditions: Homo sapiens, COLO 205, 72 h, colorectal cancer, B-Raf V599E, Ras wt, 3 days
Procedure: (§4) Methylene Blue Growth Inhibition Assay (Assay 2)
(§5) Normal human foreskin fibroblasts (HFF), human melanoma (A375P, SKMEL2, SKMEL3) colon carcinoma (Colo 205) were cultured in the following growth media: A375P, Colo 205, Roswell Park Memorial Institute (RPMI) 1640 (Life Technologies 22400-089) containing 10% fetal bovine serum (FBS); HFF, Dulbecco's modified Eagle Medium (DMEM) (Life Technologies 12320-032) containing 10% FBS; SKMEL2 and SKMEL3, Minimum Essential Medium (MEM, Life Technologies 11095-080) containing 1× non-essential amino acids (Life Technologies 11140-050) and 10% FBS. Cells were harvested using 0.25% trypsin/1 mM, EDTA, counted using a haemocytometer, and plated in 100 microliters of the appropriate media, at the following densities, in a 96-well tissue culture plate Falcon 3075): HFF and A375P, 5,000 cells/well; all other cell lines, 10,000 cells/well. The next day, compounds were diluted in RPMI containing 100 micrograms/ml gentamicin, at twice the final required concentration, from 10 mM stock solutions in dimethyl sulphoxide (DMSO). One hundred microliters per well of these dilutions were added to the 100 microliters of media currently on the cell plates. RPMI containing 0.6% DMSO was added to control wells. […]. The final concentration of DMSO in all wells was 0.3%. Cells were incubated at 37° C., 5% CO2 for 3 days. Medium was removed by aspiration. Cell biomass was estimated by staining cells with 90 μl per well methylene blue (Sigma M9140, 0.5% in 50:50 ethanol:water) and incubation at room temperature for at least 30 minutes. Stain was removed, the plates rinsed by immersion in deionized water and air-dried. To release stain from the cells 100 μl of solubilization solution was added (1% N-lauroyl sarcosine, sodium salt, Sigma L5125, in phosphate-buffered saline solution (PBS)), and plates were incubated at room temperature for 30 minutes. Optical density at 620 nm was measured on a microplate reader. Percent inhibition of cell growth was calculated relative to vehicle treated control wells. […]

human melanoma A375P = assay: Methylene Blue Growth Inhibition Assay (Assay 2), A375P; assay type: cell-based; conditions: 72 h, B-Raf V599E, Ras wt, 3 days
Procedure: as §4, §5

human melanoma SKMEL3 = assay: Methylene Blue Growth Inhibition Assay (Assay 2), SKMEL3; assay type: cell-based; conditions: SK-MEL3, 72 h, B-Raf V599E, Ras wt, 3 days
Procedure: as §4, §5

human melanoma SKMEL2 = assay: Methylene Blue Growth Inhibition Assay (Assay 2), SKMEL2; assay type: cell-based; conditions: SK-MEL-2, 72 h, B-Raf wt, [Q61R]N-Ras, 3 days
Procedure: as §4, §5

[4] = target: T1, human recombinant B-Raf protein (Homo sapiens, UniProt P15056); assay: Raf Kinase Assay (Assay 1): incorporation of radiolabelled phosphate into GST-kdMEK; assay type: biochemical; conditions: head: Assay 1
T1 construct: made in house; host or cells: Sf9 insect cells (baculovirus)
T1 sequence (P15056 whole entry): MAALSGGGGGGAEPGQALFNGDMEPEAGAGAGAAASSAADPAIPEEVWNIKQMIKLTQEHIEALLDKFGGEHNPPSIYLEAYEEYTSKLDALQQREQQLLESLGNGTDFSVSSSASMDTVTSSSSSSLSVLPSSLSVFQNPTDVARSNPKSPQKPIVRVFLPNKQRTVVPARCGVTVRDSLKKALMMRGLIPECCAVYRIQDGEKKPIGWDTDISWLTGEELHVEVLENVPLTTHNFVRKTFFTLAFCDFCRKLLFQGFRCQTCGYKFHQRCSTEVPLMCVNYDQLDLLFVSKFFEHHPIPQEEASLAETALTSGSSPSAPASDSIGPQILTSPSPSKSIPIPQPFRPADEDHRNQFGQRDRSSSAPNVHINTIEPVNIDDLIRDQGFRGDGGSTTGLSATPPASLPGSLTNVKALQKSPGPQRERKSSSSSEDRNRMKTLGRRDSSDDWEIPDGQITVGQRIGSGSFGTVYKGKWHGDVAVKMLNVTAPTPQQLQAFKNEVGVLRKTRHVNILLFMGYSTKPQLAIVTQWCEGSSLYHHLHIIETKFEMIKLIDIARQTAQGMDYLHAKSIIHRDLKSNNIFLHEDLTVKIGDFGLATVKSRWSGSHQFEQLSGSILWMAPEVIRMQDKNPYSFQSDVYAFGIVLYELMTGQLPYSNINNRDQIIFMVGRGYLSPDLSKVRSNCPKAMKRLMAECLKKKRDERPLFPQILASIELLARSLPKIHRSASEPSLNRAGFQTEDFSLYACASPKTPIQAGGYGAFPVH
Procedure: Activity of human recombinant B-Raf protein was assessed in vitro by assay of the incorporation of radiolabelled phosphate to recombinant MAP kinase kinase (MEK), a known physiologic substrate of B-Raf. Catalytically active human recombinant B-Raf protein was obtained by purification from Sf9 insect cells infected with a human B-Raf recombinant baculovirus expression vector.
Method: Standard assay conditions of B-Raf catalytic activity utilised 3 ug of GST-kdMEK, 10 uM ATP and 2uCi ^33P-ATP, 50 mM MOPS, 0.1 mM EDTA, 0.1M sucrose, 10 mM MgCl2 plus 0.1% dimethylsulphoxide (containing compound where appropriate) in a total reaction volume of 30 ul. Reactions were incubated at 25° C. for 90 minutes and reactions terminated by addition of ethylenediaminetetraacetic acid (EDTA) to a final concentration of 50 uM. 10 ul of reaction was spotted to P81 phosphocellulose paper and air dried. Following four washes in ice cold 10% trichloroacetic acid, 0.5% phosphoric acid, papers were air dried prior to addition of liquid scintillant and measurement of radioactvity in a scintillation counter.

SMILES	IC50 [1]	IC50 [2]	IC50 [3]	IC50 (human melanoma A375P)	IC50 (human melanoma SKMEL3)	IC50 (human melanoma SKMEL2)	Kd [4]
ON=C1CCc2cc(-c3cc(C4CCNCC4)oc3-c3ccncc3)ccc21 [Example 31, 5-(5-Piperidin-4-yl-2-pyridin-4-yl-furan-3-yl)-indan-1-one oxime]	21000 nM	10 nM	10 nM	43 nM	650 nM	170 nM	–
ON=C1CCc2cc(-c3cc(CN4CCOCC4)oc3-c3ccncc3)ccc21 [Example 1, 5-(5-Morpholin-4-ylmethyl-2-pyridin-4-yl-furan-3-yl)-indan-1-one oxime]	> 30000 nM	490 nM	750 nM	1300 nM	5300 nM	4200 nM	–
O=S1(=O)CCN(Cc2cc(-c3ccc4c(c3)CCC4=NO)c(-c3ccncc3)o2)CC1 [Example 5, 5-[5-(1,1-Dioxo-1-thiomorpholin-4-ylmethyl)-2-pyridin-4-yl-furan-3-yl]-indan-1-one oxime]	> 30000 nM	890 nM	230 nM	600 nM	5400 nM	2500 nM	3.6 nM
